# Measured values taken from article PMC3220932 (Pulmonary pharmacology & therapeutics, 2011).
# How the values were obtained:
# [1] = tested on: human bronchial smooth muscle cells; assay type: cell-based; conditions: for IC50: read-out: IC50 for rapidly inhibiting formoterol uptake by human bronchial smooth muscle cells, 200 nmol/l [3H]-formoterol, mean, n = 6
# OCT3 = biological target: T1, OCT3 (Homo sapiens, UniProt O75751); conditions: bronchial smooth muscle cells, OCT3 targeted shRNA
# T1 sequence (O75751 1-556): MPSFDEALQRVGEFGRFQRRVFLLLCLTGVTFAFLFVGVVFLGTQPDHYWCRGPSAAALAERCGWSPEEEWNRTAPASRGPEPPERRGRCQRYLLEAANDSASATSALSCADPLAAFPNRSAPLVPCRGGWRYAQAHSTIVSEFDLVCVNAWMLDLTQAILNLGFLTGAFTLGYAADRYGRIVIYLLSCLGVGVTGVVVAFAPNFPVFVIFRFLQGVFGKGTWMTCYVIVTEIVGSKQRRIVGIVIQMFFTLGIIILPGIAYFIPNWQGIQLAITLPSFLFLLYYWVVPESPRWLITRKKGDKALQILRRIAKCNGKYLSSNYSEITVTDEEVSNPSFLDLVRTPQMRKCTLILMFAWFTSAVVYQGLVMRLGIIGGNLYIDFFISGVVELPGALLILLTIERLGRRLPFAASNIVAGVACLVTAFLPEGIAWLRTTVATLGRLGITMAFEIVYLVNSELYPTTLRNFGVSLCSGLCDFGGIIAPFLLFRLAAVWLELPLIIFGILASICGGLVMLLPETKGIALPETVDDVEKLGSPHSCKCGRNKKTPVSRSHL
# [2] = tested on: human airway epithelial cells; experiment: Corticosteroid effect on tritiated drug uptake by airway epithelial cells; assay type: cell-based; conditions: 5 μmol/l
# [3] = tested on: human bronchial smooth muscle cells; experiment: Cellular drug uptake by bronchial smooth muscle cells; conditions: 37°C, 15 min; for cellular uptake in smooth muscle cells: 200 nmol/l [3H]-formoterol or [3H]-salmeterol
# [4] = tested on: human airway epithelial cells; experiment: Cellular drug uptake by airway epithelial cells; conditions: 37°C, 15 min; for cellular uptake in airway epithelial cells: 200 nmol/l [3H]-formoterol or [3H]-salmeterol
smiles,measurement,setting,value
CCC(=O)O[C@]1(C(=O)CO)[C@@H](C)C[C@H]2[C@@H]3CCC4=CC(=O)C=C[C@]4(C)[C@@]3(Cl)[C@@H](O)C[C@@]21C [Beclomethasone 17-monopropionate],IC50,[1]; 15-min incubation,4.04 µM
C[C@]12C[C@H](O)[C@H]3[C@@H](CCC4=CC(=O)CC[C@@]43C)[C@@H]1CC[C@@H]2C(=O)CO [Corticosterone],action on formoterol uptake in presence of transcription inhibitor actinomycin D,"[1]; 5 μM, 100 μM actinomycin D added 60 min prior to transport measurements",insensitive
same,effect on MPP+ uptake by bronchial smooth muscle cells,"[1]; 5 μmol/l, 15-min incubation",significantly reduced
same,effect on salmeterol uptake in bronchial smooth muscle cells,"[1]; 5 μmol/l, 15 min",insensitive to corticosterone
same,inhibitory action on formoterol uptake after pretreatment for 45 or 90 min,"[1]; 5 μmol/l, bronchial smooth muscle cells",not enhanced
same,inhibitory effect on formoterol uptake under OCT3 mRNA suppression,OCT3,reduces
same,effect on MPP+ uptake by airway epithelial cells,[2]; 15-min incubation,but not airway epithelial cells
same,effect on salmeterol uptake in epithelial cells,[2]; 15 min,insensitive to corticosterone
same,rapid inhibitory effect on formoterol uptake in epithelial cells,[2]; 15 min,not in epithelial cells
CCC(=O)O[C@]1(C(=O)SCF)[C@H](C)C[C@H]2[C@@H]3C[C@H](F)C4=CC(=O)C=C[C@]4(C)[C@@]3(F)[C@@H](O)C[C@@]21C [Fluticasone propionate],IC50,[1]; 15-min incubation,6.29 µM
"C[n+]1ccc(-c2ccccc2)cc1 [MPP^+, N-methyl-4-phenylpyridinium]",cellular uptake of MPP+ in smooth muscle cells,[3]; 5 nmol/l [3H]-MPP+,0.21 ± 0.02 pmol/mg protein/15 min
same,cellular uptake of MPP+ in epithelial cells,[4]; 5 nmol/l [3H]-MPP+,0.18 ± 0.03 pmol/mg protein/15 min
COc1ccc(CC(C)NCC(O)c2ccc(O)c(NC=O)c2)cc1 (stereo not shown) [formoterol],cellular uptake in smooth muscle cells,[3],28.1 ± 1.6 pmol/mg protein/15 min
same,cellular uptake in airway epithelial cells,[4],8.9 ± 0.5 pmol/mg protein/15 min
OCc1cc(C(O)CNCCCCCCOCCCCc2ccccc2)ccc1O (stereo not shown) [salmeterol],cellular uptake in smooth muscle cells,[3],306.9 ± 13.3 pmol/mg protein/15 min
same,cellular uptake in airway epithelial cells,[4],46.6 ± 1.9 pmol/mg protein/15 min
